Laboratory results: the OligoGym collection
Where “and” joins values, the source holds several entries; their conditions need not be identical. Identical values can stand only once. HELM strings list units from the 5' end as sugar, base in round brackets, then linkage (d deoxyribose, r ribose, m 2'-O-methyl, p phosphodiester). Methylation of C is not given here. [moe] = 2'-O-(2-methoxyethyl) (MOE); [cEt] = constrained ethyl (cEt); [sp] = phosphorothioate linkage

Target: HBV
Conditions: ASO

| Substance | target mRNA inhibition (HepG2, 0.07 µM) | further results |
| --- | --- | --- |
| RNA1{[moe](A)[sp].[moe](C)[sp].d(C)[sp].d(A)[sp].d(A)[sp].d(T)[sp].d(T)[sp].d(T)[sp].d(A)[sp].d(T)[sp].d(G)[sp].[moe](C)[sp].[moe](C)[sp].[moe](T)[sp].[moe](A)[sp].[moe](C)[sp].[moe](A)}$$$$V2.0 | 54% and 47% |  |
| RNA1{[moe](A)[sp].[moe](C)[sp].d(G)[sp].d(T)[sp].d(G)[sp].d(C)[sp].d(A)[sp].d(G)[sp].d(A)[sp].d(G)[sp].d(G)[sp].[moe](T)[sp].[moe](G)[sp].[moe](A)[sp].[moe](A)[sp].[moe](G)[sp].[moe](C)}$$$$V2.0 | 78% | target mRNA inhibition (HepG2, 0.0092593 µM): 20%; target mRNA inhibition (HepG2, 0.0277778 µM): 25%; target mRNA inhibition (HepG2, 0.0833333 µM): 69%; target mRNA inhibition (HepG2, 0.25 µM): 89% |
| RNA1{[moe](A)[sp].[moe](G)[sp].[moe](A)[sp].[moe](G)[sp].d(G)[sp].d(T)[sp].d(G)[sp].d(A)[sp].d(A)[sp].d(G)[sp].d(C)[sp].d(G)[sp].d(A)[sp].[moe](A)[sp].[moe](G)[sp].[moe](T)}$$$$V2.0 | 52% and 54% |  |
| RNA1{[moe](A)[sp].[moe](G)[sp].[moe](A)[sp].[moe](T)[sp].d(G)[sp].d(A)[sp].d(G)[sp].d(G)[sp].d(C)[sp].d(A)[sp].d(T)[sp].d(A)[sp].d(G)[sp].[moe](C)[sp].[moe](A)[sp].[moe](G)[sp].[moe](C)}$$$$V2.0 | 45% and 40% |  |
| RNA1{[moe](A)[sp].[moe](G)[sp].[moe](A)[sp].d(A)[sp].d(G)[sp].d(T)[sp].d(C)[sp].d(C)[sp].d(A)[sp].d(C)[sp].d(C)[sp].d(A)[sp].[moe](C)[sp].[moe](G)[sp].[moe](A)[sp].[moe](G)[sp].[moe](T)}$$$$V2.0 | 41% and 44% |  |
| RNA1{[moe](A)[sp].[moe](G)[sp].[moe](A)[sp].d(G)[sp].d(G)[sp].d(T)[sp].d(G)[sp].d(A)[sp].d(A)[sp].d(G)[sp].d(C)[sp].d(G)[sp].d(A)[sp].[cEt](A)[sp].[cEt](G)[sp].[cEt](T)}$$$$V2.0 | 69% and 74% |  |
| RNA1{[moe](A)[sp].[moe](G)[sp].[moe](A)[sp].d(T)[sp].d(G)[sp].d(A)[sp].d(G)[sp].d(G)[sp].d(C)[sp].d(A)[sp].d(T)[sp].d(A)[sp].d(G)[sp].[cEt](C)[sp].[cEt](A)[sp].[cEt](G)}$$$$V2.0 | 50% and 70% |  |
| RNA1{[moe](A)[sp].[moe](G)[sp].[moe](G)[sp].[moe](C)[sp].[moe](A)[sp].[moe](T)[sp].d(A)[sp].d(G)[sp].d(C)[sp].d(A)[sp].d(G)[sp].d(C)[sp].d(A)[sp].d(G)[sp].d(G)[sp].[moe](A)[sp].[moe](T)}$$$$V2.0 | 71% and 50% |  |
| RNA1{[moe](A)[sp].[moe](G)[sp].[moe](G)[sp].d(C)[sp].d(A)[sp].d(T)[sp].d(A)[sp].d(G)[sp].d(C)[sp].d(A)[sp].d(G)[sp].d(C)[sp].[moe](A)[sp].[moe](G)[sp].[moe](G)[sp].[moe](A)[sp].[moe](T)}$$$$V2.0 | 55% and 53% |  |
| RNA1{[moe](A)[sp].[moe](G)[sp].[moe](G)[sp].d(C)[sp].d(A)[sp].d(T)[sp].d(A)[sp].d(G)[sp].d(C)[sp].d(A)[sp].d(G)[sp].d(C)[sp].d(A)[sp].[cEt](G)[sp].[cEt](G)[sp].[cEt](A)}$$$$V2.0 | 69% and 77% |  |
| RNA1{[moe](A)[sp].[moe](G)[sp].[moe](T)[sp].d(T)[sp].d(C)[sp].d(C)[sp].d(G)[sp].d(C)[sp].d(A)[sp].d(G)[sp].d(T)[sp].d(A)[sp].[moe](T)[sp].[moe](G)[sp].[moe](G)[sp].[moe](A)}$$$$V2.0 | 46% and 58% |  |
| RNA1{[moe](A)[sp].[moe](G)[sp].d(A)[sp].d(G)[sp].d(A)[sp].d(A)[sp].d(G)[sp].d(T)[sp].d(C)[sp].d(C)[sp].d(A)[sp].[moe](C)[sp].[moe](C)[sp].[moe](A)[sp].[moe](C)[sp].[moe](G)[sp].[moe](A)}$$$$V2.0 | 39% and 27% |  |
| RNA1{[moe](A)[sp].[moe](G)[sp].d(A)[sp].d(G)[sp].d(G)[sp].d(T)[sp].d(G)[sp].d(A)[sp].d(A)[sp].d(G)[sp].d(C)[sp].[moe](G)[sp].[moe](A)[sp].[moe](A)[sp].[moe](G)[sp].[moe](T)[sp].[moe](G)}$$$$V2.0 | 56% |  |
| RNA1{[moe](A)[sp].[moe](G)[sp].d(A)[sp].d(G)[sp].d(G)[sp].d(T)[sp].d(G)[sp].d(A)[sp].d(A)[sp].d(G)[sp].d(C)[sp].[moe](G)[sp].[moe](A)[sp].[moe](A)[sp].[moe](G)[sp].[moe](T)}$$$$V2.0 | 40% and 48% |  |
| RNA1{[moe](A)[sp].[moe](G)[sp].d(A)[sp].d(T)[sp].d(G)[sp].d(A)[sp].d(G)[sp].d(G)[sp].d(C)[sp].d(A)[sp].d(T)[sp].[moe](A)[sp].[moe](G)[sp].[moe](C)[sp].[moe](A)[sp].[moe](G)[sp].[moe](C)}$$$$V2.0 | 76% and 78% |  |
| RNA1{[moe](A)[sp].[moe](G)[sp].d(A)[sp].d(T)[sp].d(G)[sp].d(A)[sp].d(G)[sp].d(G)[sp].d(C)[sp].d(A)[sp].d(T)[sp].[moe](A)[sp].[moe](G)[sp].[moe](C)[sp].[moe](A)[sp].[moe](G)}$$$$V2.0 | 62% and 46% |  |
| RNA1{[moe](A)[sp].[moe](G)[sp].d(G)[sp].d(A)[sp].d(G)[sp].d(T)[sp].d(T)[sp].d(C)[sp].d(C)[sp].d(G)[sp].d(C)[sp].[moe](A)[sp].[moe](G)[sp].[moe](T)[sp].[moe](A)[sp].[moe](T)[sp].[moe](G)}$$$$V2.0 | 81% and 63% |  |
| RNA1{[moe](A)[sp].[moe](G)[sp].d(G)[sp].d(T)[sp].d(G)[sp].d(A)[sp].d(A)[sp].d(G)[sp].d(C)[sp].d(G)[sp].d(A)[sp].[moe](A)[sp].[moe](G)[sp].[moe](T)[sp].[moe](G)[sp].[moe](C)[sp].[moe](A)}$$$$V2.0 | 72% and 69% |  |
| RNA1{[moe](A)[sp].[moe](G)[sp].d(T)[sp].d(T)[sp].d(C)[sp].d(C)[sp].d(G)[sp].d(C)[sp].d(A)[sp].d(G)[sp].d(T)[sp].[moe](A)[sp].[moe](T)[sp].[moe](G)[sp].[moe](G)[sp].[moe](A)[sp].[moe](T)}$$$$V2.0 | 68% and 70% |  |
| RNA1{[moe](A)[sp].[moe](T)[sp].[moe](G)[sp].[moe](A)[sp].d(G)[sp].d(G)[sp].d(C)[sp].d(A)[sp].d(T)[sp].d(A)[sp].d(G)[sp].d(C)[sp].d(A)[sp].[moe](G)[sp].[moe](C)[sp].[moe](A)[sp].[moe](G)}$$$$V2.0 | 0% |  |
| RNA1{[moe](A)[sp].[moe](T)[sp].[moe](G)[sp].d(A)[sp].d(G)[sp].d(G)[sp].d(C)[sp].d(A)[sp].d(T)[sp].d(A)[sp].d(G)[sp].d(C)[sp].d(A)[sp].[cEt](G)[sp].[cEt](C)[sp].[cEt](A)}$$$$V2.0 | 71% and 73% |  |
| RNA1{[moe](A)[sp].[moe](T)[sp].[moe](T)[sp].[cEt](T)[sp].d(A)[sp].d(T)[sp].d(G)[sp].d(C)[sp].d(C)[sp].d(T)[sp].d(A)[sp].d(C)[sp].d(A)[sp].[cEt](G)[sp].[moe](C)[sp].[moe](C)[sp].[moe](T)}$$$$V2.0 |  | target mRNA inhibition (HepG2, 0.009375 µM): 32%; target mRNA inhibition (HepG2, 0.01875 µM): 32%; target mRNA inhibition (HepG2, 0.0375 µM): 42%; target mRNA inhibition (HepG2, 0.075 µM): 62%; target mRNA inhibition (HepG2, 0.15 µM): 76%; target mRNA inhibition (HepG2, 0.3 µM): 80% |
| RNA1{[moe](A)[sp].[moe](T)[sp].[moe](T)[sp].[moe](T)[sp].d(A)[sp].d(T)[sp].d(G)[sp].d(C)[sp].d(C)[sp].d(T)[sp].d(A)[sp].d(C)[sp].d(A)[sp].[moe](G)[sp].[moe](C)[sp].[moe](C)}$$$$V2.0 | 52% and 49% |  |
| RNA1{[moe](A)[sp].[moe](T)[sp].[moe](T)[sp].d(T)[sp].d(A)[sp].d(T)[sp].d(G)[sp].d(C)[sp].d(C)[sp].d(T)[sp].d(A)[sp].d(C)[sp].d(A)[sp].[moe](G)[sp].[moe](C)[sp].[moe](C)[sp].[moe](T)}$$$$V2.0 |  | target mRNA inhibition (HepG2, 0.0092593 µM): 3%; target mRNA inhibition (HepG2, 0.0277778 µM): 11%; target mRNA inhibition (HepG2, 0.0833333 µM): 13%; target mRNA inhibition (HepG2, 0.25 µM): 41% |
| RNA1{[moe](A)[sp].[moe](T)[sp].d(G)[sp].d(A)[sp].d(G)[sp].d(G)[sp].d(C)[sp].d(A)[sp].d(T)[sp].d(A)[sp].d(G)[sp].[moe](C)[sp].[moe](A)[sp].[moe](G)[sp].[moe](C)[sp].[moe](A)[sp].[moe](G)}$$$$V2.0 | 64% |  |
| RNA1{[moe](C)[sp].[cEt](A)[sp].[cEt](C)[sp].d(A)[sp].d(G)[sp].d(C)[sp].d(T)[sp].d(T)[sp].d(G)[sp].d(G)[sp].d(A)[sp].d(G)[sp].d(G)[sp].[cEt](C)[sp].[cEt](T)[sp].[moe](T)}$$$$V2.0 | 11% and 0% |  |
| RNA1{[moe](C)[sp].[cEt](A)[sp].[cEt](C)[sp].d(G)[sp].d(A)[sp].d(G)[sp].d(T)[sp].d(C)[sp].d(T)[sp].d(A)[sp].d(G)[sp].d(A)[sp].d(C)[sp].[cEt](T)[sp].[cEt](C)[sp].[moe](T)}$$$$V2.0 | 44% and 38% |  |
| RNA1{[moe](C)[sp].[cEt](A)[sp].[cEt](G)[sp].d(C)[sp].d(T)[sp].d(T)[sp].d(G)[sp].d(G)[sp].d(A)[sp].d(G)[sp].d(G)[sp].d(C)[sp].d(T)[sp].[cEt](T)[sp].[cEt](G)[sp].[moe](A)}$$$$V2.0 | 5% and 12% |  |
| RNA1{[moe](C)[sp].[cEt](C)[sp].[cEt](A)[sp].d(C)[sp].d(A)[sp].d(T)[sp].d(C)[sp].d(A)[sp].d(T)[sp].d(C)[sp].d(C)[sp].d(A)[sp].d(T)[sp].[cEt](A)[sp].[cEt](T)[sp].[moe](A)}$$$$V2.0 | 60% and 50% |  |
| RNA1{[moe](C)[sp].[cEt](C)[sp].[cEt](G)[sp].d(C)[sp].d(A)[sp].d(G)[sp].d(T)[sp].d(A)[sp].d(T)[sp].d(G)[sp].d(G)[sp].d(A)[sp].d(T)[sp].[cEt](C)[sp].[cEt](G)[sp].[moe](G)}$$$$V2.0 | 63% and 52% |  |
